{"source": "patent US10238676B2", "about": "“Application of ginsenoside RG3 in preparing medicine for preventing and/or treating dementia, and medicine for treating dementia” (priority 2013, dated 2019)", "key": {"[1]": {"assay": "Content of ginsenoside Rg3 in rat cerebrospinal fluid (BBB test, LC/MS/MS)", "format": "in vivo, SD rats", "details": "rats, orally 10 mg/kg", "experimental": "1) Oral administration: an oral preparation of ginsenoside Rg3 is given to SD rats by lavage, the medicines of all high-dosage, medium-dosage and low-dosage groups are: 20, 10 and 5 mg/kg (the dosage above is pure dosage of Rg3)/bid, respectively, and each dosage group has 18 rats;\nRat cerebrospinal fluid is sucked after orally, topically and injection administering different preparations of ginsenoside Rg3 for 4 hours. […] Each rat is anesthetized with 10% chloral hydrate by intraperitoneal injection, the head of the rat is fixed by brain straight body positioning ear rods and front tooth rods, the occipital region is sheared and sterilized, and a longitudinal incision (about 2 cm) is cut along the posterior midline, and the muscles at the dorsal part of napex are bluntly separated with a pair of scissors. […]\nThe medicine concentrations in the rat cerebrospinal fluid are determined by LC/MS/MS methods. […]"}, "[2]": {"system": "intracerebral cholinergic nerve system of rat model with Alzheimer's disease", "assay": "AChE positive nerve fiber density of cortex and hippocampal formation, rat model with Alzheimer's disease (D-galactose + IBO)", "format": "in vivo, Wistar rats", "details": "AD model rats, 6 weeks; for N Frontal lobe AchE positive nerve fiber density: Rg3 lotion (embodiment 7) on both sides of nose; for N Entorhinal cortex AchE positive nerve fiber density / N Occipital lobe AchE positive nerve fiber density / Parietal lobe AchE positive nerve fiber density / N Stratum lacunosum-moleculare AchE positive nerve fiber density / N Stratum moleculare of dentate gyrus AchE positive nerve fiber density / N Stratum oriens AchE positive nerve fiber density / N Stratum radiatum AchE positive nerve fiber density: Rg3 lotion topical; for N Stratum lacunosum-moleculare AchE positive nerve fiber density / N Stratum moleculare of dentate gyrus AchE positive nerve fiber density / N Stratum oriens AchE positive nerve fiber density / N Stratum radiatum AchE positive nerve fiber density: hippocampal formation", "description": "60 Wistar rats each of which having the body weight of 300-500 g are randomly divided into 6 groups, with 10 in each group, and the groups are named a preliminary elder normal control group, a preliminary elder AD model group, a positive medicine Huperzine A group, and high-dose, medium-dose and low-dose of Ginsenoside Rg3 topical preparation groups according to different treatment methods, respectively. The rats are bred in separate cages, each holding 4-5 rats, with natural lighting and random drinking and feeding provided. Physiological saline is injected in the abdominal cavity and grain of each rat in the preliminary elder normal control group; Galactose intraperitoneal injection and IBO intracerebral injection are given to all rats in the preliminary elder AD model group, the positive medicine Huperzine A group, and the high-dose, medium-dose and low-dose Ginsenoside Rg3 topical preparation groups; while the rats in the Huperzine A group and the high-dose, medium-dose and low-dose of Ginsenoside Rg3 topical preparation groups are subjected to D-galactose injection for modeling, rat of each group is given Huperzine A 0.3 mg/kg/d and Ginsenoside Rg3 10, 5, 2.5 mg/kg/d respectively. Ginsenoside Rg3 is applied to both sides of the nose of each rat of Ginsenoside Rg3 topical preparation groups. All the rats are subjected to the medicines continuously for 6 weeks and then intracerebral bilateral Meynert nuclei injection is carried out. Reference is made to a rat cerebral stereotaxic atlas for Meynert nuclei localization, and localization coordinates are AP-0.8 mm, Late 2.6 mm and DV 8.2 mm During intracerebral injection, a rat is anesthetized with 3% pentobarbital sodium (30 mg/kg) and then immobilized to a cerebral stereotaxic apparatus, physiological saline dissolved IBO (injection 1 μl for each side containing 5 μg of IBO) or 1 μl normal saline is injected slowly into a Meynert nucleus, each side takes injection for 5 minutes, and needle retaining for 10 minutes, wherein all the rats are subjected to cerebral perfusion with 4% paraformaldehyde after modeling and are then immobilized for 24 hours, and the brain is put in a sucrose phosphate buffer until brain tissue blocks sink, the blocks are frozen in a incubator and serially sectioned to […] in thickness. The sections are subjected to acetycholinesterase (AChE) histochemical staining by methods recommended by Hedreen, et al. Observation is given to the frontal lobe, the parietal lobe, the occipital lobe and the entorhinal cortex (layer II) as well as parts in a hippocampal CA1 region of the hippocampal formation such as a stratum oriens, a stratum radiatum, a stratum lacunosum-moleculare and a stratum moleculare of dentate gyrus for observing their AChE positive nerve fiber densities, and the AChE positive nerve fiber densities are counted with a number of intersections of positive fibers with a standard grid by using a micrometer used for a microscope.\nA significance level a is equal to 0.05."}, "[3]": {"details": "cited from earlier work"}}}
{"compound": "CC(C)=CCC[C@](C)(O)[C@H]1CC[C@]2(C)[C@@H]1[C@H](O)C[C@@H]1[C@@]3(C)CC[C@H](O[C@@H]4O[C@H](CO)[C@@H](O)[C@H](O)[C@H]4O[C@@H]4O[C@H](CO)[C@@H](O)[C@H](O)[C@H]4O)C(C)(C)[C@@H]3CC[C@]12C", "note": "[Ginsenoside Rg3, 20(R)-ginsenoside Rg3]", "values": [{"measurement": "Ginsenoside Rg3 in cerebrospinal fluid sample (FIG. 2C chromatogram)", "setting": "[1]", "result": 10.8, "unit": "ng/g"}, {"measurement": "N Frontal lobe AchE positive nerve fiber density", "setting": "[2]; 2.5 mg/kg/d", "result": "122.7 ± 18.6^Δ 10^2 · mm^−2"}, {"measurement": "N Frontal lobe AchE positive nerve fiber density", "setting": "[2]; 5 mg/kg/d", "result": "130.7 ± 20.8^Δ 10^2 · mm^−2"}, {"measurement": "N Frontal lobe AchE positive nerve fiber density", "setting": "[2]; 10 mg/kg/d", "result": "143.7 ± 22.1^Δ 10^2 · mm^−2"}, {"measurement": "N Entorhinal cortex AchE positive nerve fiber density", "setting": "[2]; 2.5 mg/kg/d", "result": "130.2 ± 15.6 10^2 · mm^−2"}, {"measurement": "N Occipital lobe AchE positive nerve fiber density", "setting": "[2]; 2.5 mg/kg/d", "result": "145.2 ± 9.2^ΔΔ** 10^2 · mm^−2"}, {"measurement": "Parietal lobe AchE positive nerve fiber density", "setting": "[2]; 2.5 mg/kg/d", "result": "162.9 ± 22.0^#** 10^2 · mm^−2"}, {"measurement": "N Entorhinal cortex AchE positive nerve fiber density", "setting": "[2]; 5 mg/kg/d", "result": "142.6 ± 11.9 10^2 · mm^−2"}, {"measurement": "N Occipital lobe AchE positive nerve fiber density", "setting": "[2]; 5 mg/kg/d", "result": "160.2 ± 10.2^ΔΔ** 10^2 · mm^−2"}, {"measurement": "Parietal lobe AchE positive nerve fiber density", "setting": "[2]; 5 mg/kg/d", "result": "170.9 ± 21.2^#** 10^2 · mm^−2"}, {"measurement": "N Entorhinal cortex AchE positive nerve fiber density", "setting": "[2]; 10 mg/kg/d", "result": "161.1 ± 18.3^ΔΔ**° 10^2 · mm^−2"}, {"measurement": "N Occipital lobe AchE positive nerve fiber density", "setting": "[2]; 10 mg/kg/d", "result": "167.2 ± 12.9^ΔΔ**° 10^2 · mm^−2"}, {"measurement": "Parietal lobe AchE positive nerve fiber density", "setting": "[2]; 10 mg/kg/d", "result": "183.9 ± 24.9^#**° 10^2 · mm^−2"}, {"measurement": "N Stratum lacunosum-moleculare AchE positive nerve fiber density", "setting": "[2]; 2.5 mg/kg/d", "result": "77.2 ± 9.1^ΔΔ** 10^2 · mm^−2"}, {"measurement": "N Stratum moleculare of dentate gyrus AchE positive nerve fiber density", "setting": "[2]; 2.5 mg/kg/d", "result": "119.8 ± 12.4 10^2 · mm^−2"}, {"measurement": "N Stratum oriens AchE positive nerve fiber density", "setting": "[2]; 2.5 mg/kg/d", "result": "140.1 ± 20.5^Δ 10^2 · mm^−2"}, {"measurement": "N Stratum radiatum AchE positive nerve fiber density", "setting": "[2]; 2.5 mg/kg/d", "result": "122.4 ± 14.4^#** 10^2 · mm^−2"}, {"measurement": "N Stratum lacunosum-moleculare AchE positive nerve fiber density", "setting": "[2]; 5 mg/kg/d", "result": "84.2 ± 10.9^ΔΔ** 10^2 · mm^−2"}, {"measurement": "N Stratum moleculare of dentate gyrus AchE positive nerve fiber density", "setting": "[2]; 5 mg/kg/d", "result": "131.5 ± 14.7 10^2 · mm^−2"}, {"measurement": "N Stratum oriens AchE positive nerve fiber density", "setting": "[2]; 5 mg/kg/d", "result": "153.0 ± 22.1^Δ 10^2 · mm^−2"}, {"measurement": "N Stratum radiatum AchE positive nerve fiber density", "setting": "[2]; 5 mg/kg/d", "result": "135.1 ± 23.9^#** 10^2 · mm^−2"}, {"measurement": "N Stratum lacunosum-moleculare AchE positive nerve fiber density", "setting": "[2]; 10 mg/kg/d", "result": "99.2 ± 17.3^Δ 10^2 · mm^−2"}, {"measurement": "N Stratum moleculare of dentate gyrus AchE positive nerve fiber density", "setting": "[2]; 10 mg/kg/d", "result": "142.7 ± 11.9 10^2 · mm^−2"}, {"measurement": "N Stratum oriens AchE positive nerve fiber density", "setting": "[2]; 10 mg/kg/d", "result": "171.1 ± 16.9^Δ 10^2 · mm^−2"}, {"measurement": "N Stratum radiatum AchE positive nerve fiber density", "setting": "[2]; 10 mg/kg/d", "result": "143.2 ± 20.5^ΔΔ 10^2 · mm^−2"}, {"measurement": "medicine in native form not absorbed and excreted through feces", "setting": "[3]; animal pharmacokinetic experiments, oral preparations", "result": "about 80%"}, {"measurement": "oral absorption percentage", "setting": "[3]; oral", "result": "about 10.28%"}]}
